According to US20170182090A1, “Sulfate Salt Solution Laxative Compositions and Methods of Use Thereof” (Braintree Laboratories, Inc., priority 2014, published 2017):
Read-outs that look alike come from different tables or passages of the source.

How the values were obtained:
constipation = details: in vivo; cited from earlier work
normal volunteers [1] = assay: Adverse events and symptoms, Example 1; format: in vivo, human; details: bisacodyl 10 mg single dose
Description: (§1) Laxative related adverse events were assessed via subject completion of a study specific questionnaire. Specifically, subjects rated their experience with respect to abdominal cramping, abdominal bloating, abdominal pain, gas, nausea, and vomiting. Stool was analyzed for water and electrolyte composition.

normal volunteers [2] = assay: Single dose laxative study in normal volunteers (Example 1, Study 008-211): stool output, BM frequency, time to first BM, stool water; format: in vivo, human
Description: This single center study evaluated sulfate salt compositions containing 43.8 millimoles (mmol) sulfate salts (4.2 g total sulfate) or 80 mmol sulfate salts (7.7 g total sulfate) as compared to 10 mg bisacodyl for efficacy to induce a rapid, controlled bowel movement without significant gains or losses of electrolytes. Normal volunteers were given a single dose of laxative in an in-patient setting during which all stool and urine were collected for 24 hours after laxative administration. Efficacy was based on total stool output, bowel movement frequency and time to first bowel movement (BM). A time to first BM of less than three hours was considered ideal. Stool was analyzed to determine the gain or loss of electrolytes. Safety was assessed through the collection of adverse event data and analysis of urine electrolyte composition.
Normal male and female volunteers in this single center study were enrolled to receive a single dose of a sulfate laxative formulations or bisacodyl in an open-label, non-randomized fashion.
Enrolled study subjects received a single dose of a formulation of sulfate salts (dissolved in 120 ml water) and separately, 10 mg bisacodyl, in an open-label, non-randomized fashion. The sulfate preparations, shown below, were compounded by the investigator.
After an eight hour (overnight) fast, study subjects ingested either a single dose of sulfate laxative (containing sodium sulfate and potassium sulfate) or, on a different day, bisacodyl. Sulfate was initially given with a 1:1 molar ratio sodium to potassium at a dose of 43.8 mmole sulfate salts (4.2 g total sulfate) sulfate to three study subjects. The dose was later increased to 80 mmole sulfate salts (7.7 g total sulfate) in one study subject. The 80 mmol sulfate salt formulation was then changed to a 3:1 sodium to potassium molar ratio for the final five study subjects. Bisacodyl was given at a dose of 10 mg.
Stool and urine were collected for 24 hours following laxative ingestion.
(§2) Efficacy was assessed via quantitative measurements of stool weight, bowel movement frequency and time to first BM. All stools were collected, weighed and subsequently analyzed for water and electrolyte composition.

normal volunteers [3] = details: bisacodyl 20 mg, n=11, cited from earlier work
normal volunteers [4] = assay: Stool electrolyte output and balance, Example 1; format: in vivo, human; details: bisacodyl 10 mg
Description: as §2, §1
Stools collected from study subjects were analyzed for sodium, potassium and sulfate. The data for the 80 mmol sulfate salt formulation and 10 mg bisacodyl are discussed here. The total electrolyte content of the stool was compared with the total electrolyte quantity ingested from the test preparations.
The 80 mmol sulfate salt formulation was administered initially as a formula with a 1:1 sodium to potassium ratio on a molar basis (1 study subject; DC). Based on the stool analysis results from this subject (see below) the formulation was modified to a 3:1 sodium to potassium ratio for the remaining 5 study subjects. Stool electrolyte balance results are summarized below in Tables 6 and 7.

[5] = bisacodyl 10 mg single dose, mean, n=7
[6] = bisacodyl 10 mg single dose, n=7
[7] = bisacodyl 10 mg, 24 hours following laxative ingestion

For C[N+]1(CC2CC2)CC[C@]23c4c5ccc(O)c4O[C@H]2C(=O)CC[C@@]3(O)[C@H]1C5 (stereo partly shown) [Relistor], the success rate (constipation) is listed as 60%.
With CC(=O)Oc1ccc(C(c2ccc(OC(C)=O)cc2)c2ccccn2)cc1 [Bisacodyl] the “adverse events, gastrointestinal symptoms” value (normal volunteers [1]) was “one bisacodyl volunteer reported severe cramping”, the “Stool Water” value (normal volunteers [2]; bisacodyl 10 mg single dose, mean (SD), n=7) was 85.8% (2.4) and the “BM Frequency” value (normal volunteers [2]; [5]) was 2.9 #/12 hrs. For the same molecule, the “Stool Output” value (normal volunteers [2]; [5]) was 681 g/12 hrs, the “Time to first BM” value (normal volunteers [2]; [5]) was 4.4 h and the “Time to first BM” value (normal volunteers [2]; bisacodyl 10 mg single dose, mean, n=7, listed as bisacodyl) was “about 5 hrs”. The “Subjects with BM <3 hrs, number” value (normal volunteers [2]; [6]) was 1, the “Subjects with BM <3 hrs, percent” value (normal volunteers [2]; [6]) was “(14%)” and the “Subjects with BM <3 hrs, percent” value (normal volunteers [2]; bisacodyl 10 mg single dose, n=7, listed as bisacodyl) was 14%. The “bowel movements, average” value (normal volunteers [2]; [7]) was “about 3”, the “stool, average” value (normal volunteers [2]; [7]) was roughly 700 grams and the “BM Frequency” value (normal volunteers [3]; mean) was 5.4 #/12hrs. The “Stool Output” value (normal volunteers [3]; mean) was 757 g/12hrs, the “Time to first BM” value (normal volunteers [3]; mean) was 3.2 h and the “# with BM <3 hrs, number” value (normal volunteers [3]) was 5. The “# with BM <3 hrs, percent” value (normal volunteers [3]) was “(45%)”, the “# with BM <3 hrs, percent” value (normal volunteers [3]; listed as bisacodyl) was 45% and the potassium loss (normal volunteers [4]) was “about 2 grams”. For the same molecule, the sodium losses (normal volunteers [4]) was 1.2 grams.
In the case of C=CCN1CC[C@]23c4c5ccc(O)c4O[C@H]2[C@@H](OCCOCCOCCOCCOCCOCCOCCOC)CC[C@@]3(O)[C@H]1C5.O=C(O)C(=O)O [Movantik], the success rate (constipation) is listed as “approximately 45%”.
In the case of CCCCC(F)(F)[C@@]1(O)CC[C@H]2[C@@H](CC(=O)[C@@H]2CCCCCCC(=O)O)O1 [Amitiza], the success rate (constipation) is listed as 30%.
